Measured values from patent publication US20080227764A1 (published 2008).

Columns and labels:
[1] = system: rats with experimental insulin-dependent diabetes mellitus; details: intravenous morphine; diabetic rats; cited from earlier work
Male Wistar rats = experiment: Sedation: resting time in open field activity monitor; format: in vivo, rat
[2] = system: diabetic neuropathic rats; experiment: Streptozotocin diabetic neuropathic pain model (Example 1): noxious electrical current, tail flick latency, paw pressure; format: in vivo, rat
[3] = system: diabetic neuropathic male Wistar rats; experiment: Paw pressure (Randall Selitto) anti-nociception in rats with diabetic neuropathy (Example 2); format: in vivo, rat

CN1CC[C@]23c4c5ccc(O)c4O[C@H]2[C@@H](O)C=C[C@H]3[C@H]1C5 [morphine]
doses inducing dose-dependent anti-nociceptive effect relative to normal rats [1]: twice as high

CC(=O)OCC(=O)[C@H]1CC[C@H]2[C@@H]3CC[C@H]4C[C@H](O)CC[C@]4(C)[C@H]3C(=O)C[C@]12C [alphadolone acetate, 21-acetoxy-3α-hydroxy-5α-pregnane-11,20-dione]
resting times compared with saline controls (Male Wistar rats; alphadolone acetate 60 mg/kg intraperitoneally): decreased resting times
resting times compared with saline controls (Male Wistar rats; alphadolone acetate doses less than 100 mg/kg intraperitoneally, 30 minutes): did not increase resting times
anti-nociceptive action in diabetic neuropathic pain (ECT, TFL, paw pressure) ([2]; alphadolone acetate 6 mg/kg ip given alone): minimally responsive
anti-nociception to paw pressure ([3]; alphadolone acetate 1.0 mg/kg given alone): ineffective
reversal of the allodynia and hyperalgesia to paw pressure ([3]; alphadolone acetate 10 mg/kg intraperitoneally (maximum dose), given alone): 80%
anti-nociceptive effects, dose response ([3]; alphadolone acetate given alone intraperitoneally, FIG. 9): dose related anti-nociceptive effects
potency in rats with diabetic neuropathy compared with normal weight matched rats ([3]; alphadolone acetate given alone, the two dose response curves overlay each other): same potency

COc1ccc2c3c1O[C@H]1C(=O)CC[C@@]4(O)[C@@H](C2)N(C)CC[C@]314 [oxycodone, reference compound]
resting times compared with saline controls (Male Wistar rats; oxycodone 0.25 and 0.125 mg/kg intraperitoneally): decreased resting times
resting times compared with saline controls (Male Wistar rats; oxycodone doses less than 1.0 mg/kg intraperitoneally, 30 minutes): did not increase resting times
anti-nociceptive action in diabetic neuropathic pain (ECT, TFL, paw pressure) ([2]; oxycodone 250 μg/kg given alone): minimally responsive
